Test results taken from ChEMBL document CHEMBL1201862, “PubChem BioAssay data set” (2004).
Blank lines part the entries; values can stand above or below the molecule they belong to. Active and inactive are the calls of the source.

What was measured:
[1] = Luminescence Cell-Based Dose Confirmation HTS to Identify Inhibitors of Platelet Dense Granule Release. [Related pubchem assays: 1663 (Primary HTS), 1678 (Summary of Project)]; type: functional
[2] = molecular target: Luciferin 4-monooxygenase (Photinus pyralis, UniProt P08659); test: firefly luciferase enzyme inhibitors, dose response, biochemical, luminescence (AID 1891)
[3] = control 3'UTR Renilla luciferase suppression, dose response, counter-screen for Shn3 inhibitor project, cell-based, Clone20-Shn3RL, cherry-picked (AID 624133); type: functional
[4] = Shn3 3'UTR reporter inhibitors, dose response, cell-based, Clone20 osteoblasts, firefly luciferase, cherry-picked (AID 624132); type: functional;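 further: firefly luciferase luminescence from reporter carrying the Shn3 3'UTR in osteoblasts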
[5] = HepG2 cell cytotoxicity, dose response, cytotoxicity control for Shn3 inhibitor project, CellTiter-Glo, cherry-picked (AID 624134); type: functional, cell-based
[6] = molecular target: Cytochrome P450 2C9 (Homo sapiens, UniProt P11712)
[7] = molecular target: T1, Cytochrome P450 1A2 (Homo sapiens, UniProt P05177);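 further: PubChem cytochrome P450 panel assay, CYP1A2 panel member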
T1 sequence (P05177 whole entry): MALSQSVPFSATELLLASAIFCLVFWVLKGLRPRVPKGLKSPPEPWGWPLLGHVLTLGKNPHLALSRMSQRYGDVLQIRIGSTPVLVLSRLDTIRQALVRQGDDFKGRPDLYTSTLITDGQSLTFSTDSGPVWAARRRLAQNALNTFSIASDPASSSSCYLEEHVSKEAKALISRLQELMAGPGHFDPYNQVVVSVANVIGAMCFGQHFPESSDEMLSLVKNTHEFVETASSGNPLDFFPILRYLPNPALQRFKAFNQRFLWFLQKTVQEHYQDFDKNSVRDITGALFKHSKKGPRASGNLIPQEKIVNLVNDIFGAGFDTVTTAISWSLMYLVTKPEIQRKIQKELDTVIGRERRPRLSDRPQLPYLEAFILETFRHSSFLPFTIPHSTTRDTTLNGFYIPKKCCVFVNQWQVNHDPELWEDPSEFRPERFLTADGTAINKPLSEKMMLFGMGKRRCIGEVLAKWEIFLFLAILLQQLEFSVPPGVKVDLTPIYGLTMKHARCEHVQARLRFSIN

[8] = molecular target: T2, RNA-binding protein pos-1 (Caenorhabditis elegans, UniProt G5EF15); test: inhibitors of POS-1/mex-3 RNA binding, dose response, biochemical, fluorescence polarization (AID 1964);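 further: purified POS-1 fused to maltose binding protein made in E. coli; potency of compounds blocking POS-1 binding to fluorescent RNA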
T2 sequence (G5EF15 whole entry): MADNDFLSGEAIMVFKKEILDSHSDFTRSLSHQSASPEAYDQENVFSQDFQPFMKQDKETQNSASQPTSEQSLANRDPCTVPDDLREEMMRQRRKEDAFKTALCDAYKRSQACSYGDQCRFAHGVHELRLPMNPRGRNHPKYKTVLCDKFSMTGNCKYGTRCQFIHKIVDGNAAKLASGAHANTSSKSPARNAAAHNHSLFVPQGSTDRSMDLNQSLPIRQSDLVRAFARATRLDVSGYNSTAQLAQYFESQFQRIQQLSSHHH

[9] = molecular target: T3, Protein skinhead-1 (Caenorhabditis elegans, UniProt P34707); type: functional
T3 sequence (P34707 whole entry): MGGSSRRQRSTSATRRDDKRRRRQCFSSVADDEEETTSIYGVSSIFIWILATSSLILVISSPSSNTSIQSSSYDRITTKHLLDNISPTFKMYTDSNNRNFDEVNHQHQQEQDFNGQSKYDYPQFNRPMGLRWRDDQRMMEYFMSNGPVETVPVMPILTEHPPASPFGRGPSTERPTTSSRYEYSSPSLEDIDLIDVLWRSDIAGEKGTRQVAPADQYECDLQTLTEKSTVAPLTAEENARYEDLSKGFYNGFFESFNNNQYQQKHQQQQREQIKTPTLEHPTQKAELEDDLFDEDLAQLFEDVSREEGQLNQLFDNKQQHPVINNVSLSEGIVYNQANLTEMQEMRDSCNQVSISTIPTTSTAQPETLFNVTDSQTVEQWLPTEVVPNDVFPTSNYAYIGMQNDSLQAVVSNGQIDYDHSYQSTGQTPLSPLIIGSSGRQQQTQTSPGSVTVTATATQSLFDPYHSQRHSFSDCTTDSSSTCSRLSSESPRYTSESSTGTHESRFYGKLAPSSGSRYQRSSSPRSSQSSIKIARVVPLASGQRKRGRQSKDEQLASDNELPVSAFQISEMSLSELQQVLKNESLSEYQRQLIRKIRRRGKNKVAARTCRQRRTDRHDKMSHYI

[10] = inhibitors of clade B AD8 Env fusion, dose response, cell-based, cherry-pick (AID 652062); type: functional;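 further: luciferase signal from cell-cell fusion driven by HIV-1 clade B AD8 Env; potency is for inhibitors of fusion seen as a drop in luminescence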
[11] = inhibitors of HIV Env-driven cell fusion, dose response, cherry-pick (AID 652057); type: functional, cell-based
[12] = molecular target: Cytochrome P450 2C19 (Homo sapiens, UniProt P33261); test: Cytochrome panel assay with activity outcomes. Panel member name: p450-cyp2c19 Compounds with AC50 equal or less than 10 uM are considered active; type: functional; conditions: read-out: AC50
[13] = molecular target: Cytochrome P450 3A4 (Homo sapiens, UniProt P08684);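 further: CYP3A4 tested as one member of a cytochrome P450 panel screen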
[14] = molecular target: T4, Calpain-2 catalytic subunit (Sus scrofa, UniProt P43367); test: pig calpain II inhibitor potency, dose response, biochemical, fluorogenic peptide substrate (AID 1420); type: functional
T4 sequence (P43367 whole entry): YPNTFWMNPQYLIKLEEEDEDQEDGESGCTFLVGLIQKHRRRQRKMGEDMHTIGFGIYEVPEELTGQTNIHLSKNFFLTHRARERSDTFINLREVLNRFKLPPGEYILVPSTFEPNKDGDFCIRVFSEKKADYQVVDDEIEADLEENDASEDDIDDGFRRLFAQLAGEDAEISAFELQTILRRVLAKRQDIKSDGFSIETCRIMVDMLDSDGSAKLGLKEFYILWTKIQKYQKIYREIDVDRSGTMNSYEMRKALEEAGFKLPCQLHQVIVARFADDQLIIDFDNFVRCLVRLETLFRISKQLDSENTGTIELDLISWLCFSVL

[15] = inhibitors of intracellular T. cruzi replication, confirmation, NIH3T3 host cells, beta-gal luminescence (AID 2044); type: functional, cell-based;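 further: intracellular parasites grown in NIH/3T3 mouse fibroblasts as host cells; luminescent beta-galactosidase reporter signal from transgenic T. cruzi replicating inside host cells; inhibitors lower the luminescence signal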
[16] = cytotoxicity toward NIH3T3 fibroblasts, dose response, counter-screen, cell-based, ATP luminescence, mouse fibroblasts (AID 2010); type: functional;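 further: cells exposed to compound for about 90 hours before reading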
[17] = molecular target: T5, Heat shock factor protein 1 (Mus musculus, UniProt P38532); test: inhibition of MG132-induced HSE-luciferase signal, confirmation, cell-based, NIH3T3, luminescence, dose retest (AID 2382); type: functional;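 further: NIH3T3 fibroblasts with HSF1-driven luciferase reporter stressed by proteasome inhibitor MG132; luminescence from HSF1-driven luciferase expression after 8 hours of MG132 stress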
T5 sequence (P38532 whole entry): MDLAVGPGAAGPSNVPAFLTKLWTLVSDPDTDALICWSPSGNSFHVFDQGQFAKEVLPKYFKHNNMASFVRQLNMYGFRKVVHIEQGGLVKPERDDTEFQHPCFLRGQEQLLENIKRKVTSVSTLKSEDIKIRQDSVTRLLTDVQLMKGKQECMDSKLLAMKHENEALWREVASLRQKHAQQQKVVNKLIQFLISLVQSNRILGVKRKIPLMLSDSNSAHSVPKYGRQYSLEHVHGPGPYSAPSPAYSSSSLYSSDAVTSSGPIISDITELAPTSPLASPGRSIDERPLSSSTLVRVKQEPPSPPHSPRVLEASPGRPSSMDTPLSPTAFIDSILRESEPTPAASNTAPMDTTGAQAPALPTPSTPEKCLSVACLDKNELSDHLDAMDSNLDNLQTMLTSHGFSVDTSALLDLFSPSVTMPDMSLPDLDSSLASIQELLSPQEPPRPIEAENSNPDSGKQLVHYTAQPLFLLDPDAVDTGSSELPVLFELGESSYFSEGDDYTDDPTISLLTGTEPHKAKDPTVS

Sequence of Cytochrome P450 2C9 (P11712 whole entry): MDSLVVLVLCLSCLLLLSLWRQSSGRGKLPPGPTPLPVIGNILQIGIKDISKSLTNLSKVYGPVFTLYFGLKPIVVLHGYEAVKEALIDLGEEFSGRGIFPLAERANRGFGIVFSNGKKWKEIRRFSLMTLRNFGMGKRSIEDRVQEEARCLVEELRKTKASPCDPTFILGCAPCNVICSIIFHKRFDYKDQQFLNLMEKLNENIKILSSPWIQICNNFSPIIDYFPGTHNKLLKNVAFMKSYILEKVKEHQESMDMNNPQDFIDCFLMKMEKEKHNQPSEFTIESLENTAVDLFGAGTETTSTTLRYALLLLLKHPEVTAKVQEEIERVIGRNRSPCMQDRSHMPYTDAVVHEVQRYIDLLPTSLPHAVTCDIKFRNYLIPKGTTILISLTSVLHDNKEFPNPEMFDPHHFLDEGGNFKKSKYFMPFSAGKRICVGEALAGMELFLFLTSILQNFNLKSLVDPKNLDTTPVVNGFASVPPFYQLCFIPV
Sequence of Luciferin 4-monooxygenase (P08659 whole entry): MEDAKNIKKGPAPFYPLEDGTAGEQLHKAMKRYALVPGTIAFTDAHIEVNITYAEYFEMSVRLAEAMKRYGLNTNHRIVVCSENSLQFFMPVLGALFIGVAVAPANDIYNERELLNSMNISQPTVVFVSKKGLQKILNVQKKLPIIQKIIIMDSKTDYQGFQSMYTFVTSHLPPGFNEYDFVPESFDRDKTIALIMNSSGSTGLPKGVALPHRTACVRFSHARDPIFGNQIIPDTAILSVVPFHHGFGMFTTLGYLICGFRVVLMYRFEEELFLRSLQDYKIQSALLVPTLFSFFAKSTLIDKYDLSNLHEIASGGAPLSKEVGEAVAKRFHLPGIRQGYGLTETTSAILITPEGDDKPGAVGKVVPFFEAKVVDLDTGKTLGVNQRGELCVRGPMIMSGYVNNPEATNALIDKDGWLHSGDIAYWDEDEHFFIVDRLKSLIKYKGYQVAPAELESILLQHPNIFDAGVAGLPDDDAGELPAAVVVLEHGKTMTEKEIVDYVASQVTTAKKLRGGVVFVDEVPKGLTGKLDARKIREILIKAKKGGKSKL
Sequence of Cytochrome P450 2C19 (P33261 whole entry): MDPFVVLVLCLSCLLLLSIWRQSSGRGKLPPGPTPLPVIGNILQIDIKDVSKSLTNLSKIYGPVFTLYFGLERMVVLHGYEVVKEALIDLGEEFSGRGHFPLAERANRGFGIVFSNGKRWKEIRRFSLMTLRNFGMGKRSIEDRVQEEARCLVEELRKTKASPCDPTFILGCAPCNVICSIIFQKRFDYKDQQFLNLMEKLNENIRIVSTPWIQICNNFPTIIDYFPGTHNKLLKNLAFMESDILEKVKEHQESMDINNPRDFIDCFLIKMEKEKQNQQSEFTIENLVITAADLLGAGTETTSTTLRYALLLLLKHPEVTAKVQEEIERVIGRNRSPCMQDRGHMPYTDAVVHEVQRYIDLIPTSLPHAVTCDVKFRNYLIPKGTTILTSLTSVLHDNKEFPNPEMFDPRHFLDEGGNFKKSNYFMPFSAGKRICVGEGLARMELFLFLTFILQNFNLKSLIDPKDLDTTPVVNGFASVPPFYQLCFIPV
Sequence of Cytochrome P450 3A4 (P08684 whole entry): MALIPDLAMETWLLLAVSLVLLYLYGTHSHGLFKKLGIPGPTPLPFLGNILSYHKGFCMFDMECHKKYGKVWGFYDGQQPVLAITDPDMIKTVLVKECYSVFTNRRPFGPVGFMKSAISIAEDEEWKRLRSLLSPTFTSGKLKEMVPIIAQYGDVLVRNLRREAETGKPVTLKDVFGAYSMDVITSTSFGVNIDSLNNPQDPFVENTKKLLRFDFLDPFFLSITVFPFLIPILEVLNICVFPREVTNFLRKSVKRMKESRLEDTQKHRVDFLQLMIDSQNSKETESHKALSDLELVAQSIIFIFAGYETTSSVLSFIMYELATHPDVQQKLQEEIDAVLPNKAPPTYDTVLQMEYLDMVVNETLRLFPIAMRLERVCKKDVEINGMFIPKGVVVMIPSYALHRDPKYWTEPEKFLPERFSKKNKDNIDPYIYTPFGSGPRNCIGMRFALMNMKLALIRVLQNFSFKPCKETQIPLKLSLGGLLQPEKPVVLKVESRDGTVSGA

SMILES: CCCCOc1cccc(-c2cc(C(=O)NN=C(S)NCC)c3ccccc3n2)c1
EC50 [1]: 111 µM (active)

SMILES: Cc1ccc(C(=O)CCC(=O)Nc2cccc(C(F)(F)F)c2)cc1
EC50 [2]: > 112 µM (not active)
EC50 [1]: > 112 µM (not active)

SMILES: CC(=O)Nc1cccc(NC(=O)CSc2ncc(-c3ccc(Cl)cc3)n2Cc2ccco2)c1
AC50 [3]: 10.7 µM (active)
AC50 [4]: 4.95 µM (active)
AC50 [5]: 60.2 µM (active)

SMILES: O=C(CCc1ccccc1)NC1CCSC1=O (stereo not given)
IC50 [9]: > 100 µM (inactive)

SMILES: Cc1cccc(Cn2c(NCCO)nc3c2c(=O)n(C)c(=O)n3C)c1
AC50 [3]: 2.12 µM (active)
AC50 [4]: 0.528 µM (active)
AC50 [5]: 2.83 µM (active)

SMILES: Cc1ccc2c(c1)C(CCN)C(=O)N2Cc1ccccc1 (stereo not given)
EC50 [2]: > 112 µM (not active)
EC50 [1]: > 112 µM (not active)

SMILES: CC(=O)Nc1ccc(S(=O)(=O)c2ccc(N)cc2)cc1 [MONO-N-ACETYL DAPSONE]
AC50 [6]: inconclusive

SMILES: c1c2c(cc3sc(N4CCOCC4)nc13)OCCO2
EC50 [2]: 11.4 µM (active)
EC50 [1]: 3.56 µM (active)

SMILES: Cc1cc2ncn(S(=O)(=O)N3CCCCC3)c2cc1C
AC50 [10]: 60.6 µM (active)
AC50 [11]: 5.54 µM (active)

SMILES: CCCN(CCC)CCCNS(=O)(=O)c1cc(Br)cc2c1N(C(C)=O)CC2
AC50 [12]: 31.6 µM (inconclusive)
AC50 [6]: inconclusive

SMILES: O=C(NNC(=O)C1CCN(S(=O)(=O)c2ccc(Cl)cc2)CC1)c1ccc(Cl)cc1
AC50 [6]: inconclusive
AC50 [13]: 3.55 µM (inconclusive)

SMILES: C=CCOC(=O)C(C#N)c1nc2ccccc2nc1N1CCN(Cc2ccc3c(c2)OCO3)CC1 (stereo not given)
EC50 [15]: 1.18 µM (active)
EC50 [16]: > 60 µM (not active)
EC50 [2]: 69.2 µM (active)
EC50 [1]: > 112 µM (not active)

SMILES: COc1cccc(CN(C)CC(=O)Nc2cccc(C(F)(F)F)c2)c1OC
EC50 [17]: > 195 µM (not active)
IC50 [14]: 3.87 µM (not active)

Now from value to molecule:

AC50 [6]: inconclusive
AC50 [7]: 25.1 µM (inconclusive)
SMILES: COC(=O)CN(c1ccccn1)S(=O)(=O)c1ccccc1

EC50 [8]: > 300 µM (not active)
SMILES: O=C(O)COc1ccc(/C=C/c2n[nH]c(-c3ccccc3O)n2)cc1

IC50 [9]: 51.6 µM (inactive)
SMILES: Clc1ccc(-c2nnc(-c3ccccc3)o2)c(Cl)c1

EC50 [2]: 2.3 µM (active)
SMILES: CCCCOc1cccc(-c2cc(C(=O)NNC(=S)NCC)c3ccccc3n2)c1

AC50 [6]: inconclusive
SMILES: Cc1ccc(CNC(=O)CCNS(=O)(=O)c2ccc3c(c2)c(=O)n(C)c(=O)n3C)cc1

IC50 [14]: > 50 µM (not active)
SMILES: COc1ccccc1CN(C)CC(=O)Nc1ccc(Cl)cc1F

IC50 [14]: 0.668 µM (not active)
SMILES: CC1=CC2=NC(=O)/C(=C\c3cccn3CCOc3cc(C)cc(C)c3)C(=N)N2O1
